Measurements from ChEMBL document CHEMBL1122295, “Modified steroid hormones. 7. 4-Fluoro-17 beta-estradiol: carbon-13 nuclear magnetic resonance, crystal and molecular structure, and biological activity” (1983).
“And” between values parts separate entries of the source, which are not always exact repeats. Equal entries are not always repeated.

Experiments:
Format in all cases: functional
Rattus norvegicus [1] = organism: Rattus norvegicus; assay: Effect on the average tumor number was determined in DMBA treated rats on day 8 (3 rats with tumors out of 10 rats)
Rattus norvegicus [2] = organism: Rattus norvegicus; assay: Effect on the average tumor mass was determined in DMBA treated rats on day 1 (5 rats with tumors out of 10 rats)
Rattus norvegicus [3] = organism: Rattus norvegicus; assay: Effect on the average tumor mass was determined in DMBA treated rats on day 8 (3 rats with tumors out of 10 rats)
Rattus norvegicus [4] = organism: Rattus norvegicus; assay: Effect on the average tumor number was determined in DMBA treated rats on day 6 (5 rats with tumors out of 10 rats)
Rattus norvegicus [5] = organism: Rattus norvegicus; assay: Effect on the tumor incidence was determined in DMBA treated rats on day 6 (5 rats with tumors out of 10 rats)
Rattus norvegicus [6] = organism: Rattus norvegicus; assay: Effect on the average tumor mass was determined in DMBA treated rats on day 6 (5 rats with tumors out of 10 rats)
Rattus norvegicus [7] = organism: Rattus norvegicus; assay: Effect on the tumor incidence was determined in DMBA treated rats on day 30 (1 rats with tumors out of 10 rats)
Rattus norvegicus [8] = organism: Rattus norvegicus; assay: Effect on the average tumor number was determined in DMBA treated rats on day 150 (3 rats with tumors out of 10 rats)
Rattus norvegicus [9] = organism: Rattus norvegicus; assay: Effect on the tumor incidence was determined in DMBA treated rats on day 8 (3 rats with tumors out of 10 rats)
Rattus norvegicus [10] = organism: Rattus norvegicus; assay: Effect on the average tumor number was determined in DMBA treated rats on day 1 (5 rats with tumors out of 10 rats)
Rattus norvegicus [11] = organism: Rattus norvegicus; assay: Effect on the average tumor number was determined in DMBA treated rats on day 30 (1 rats with tumors out of 10 rats)
Rattus norvegicus [12] = organism: Rattus norvegicus; assay: Effect on the tumor incidence was determined in DMBA treated rats on day 1 (5 rats with tumors out of 10 rats)
Rattus norvegicus [13] = organism: Rattus norvegicus; assay: Effect on the average tumor mass was determined in DMBA treated rats on day 150 (3 rats with tumors out of 10 rats)
Rattus norvegicus [14] = organism: Rattus norvegicus; assay: Effect on the tumor incidence was determined in DMBA treated rats on day 150 (3 rats with tumors out of 10 rats)
Rattus norvegicus [15] = organism: Rattus norvegicus; assay: Effect on the average tumor mass was determined in DMBA treated rats on day 30 (1 rats with tumors out of 10 rats)
Rattus norvegicus [16] = organism: Rattus norvegicus; assay: Effect on the tumor incidence was determined in DMBA treated rats on day 30 (3 rats with tumors out of 10 rats)
Rattus norvegicus [17] = organism: Rattus norvegicus; assay: Effect on the tumor incidence was determined in DMBA treated rats on day 8 (4 rats with tumors out of 10 rats)
Rattus norvegicus [18] = organism: Rattus norvegicus; assay: Effect on the average tumor number was determined in DMBA treated rats on day 150 (2 rats with tumors out of 10 rats)
Rattus norvegicus [19] = organism: Rattus norvegicus; assay: Effect on the tumor incidence was determined in DMBA treated rats on day 150 (2 rats with tumors out of 10 rats)
Rattus norvegicus [20] = organism: Rattus norvegicus; assay: Effect on the average tumor mass was determined in DMBA treated rats on day 150 (2 rats with tumors out of 10 rats)
Rattus norvegicus [21] = organism: Rattus norvegicus; assay: Effect on the average tumor number was determined in DMBA treated rats on day 30 (3 rats with tumors out of 10 rats)
Rattus norvegicus [22] = organism: Rattus norvegicus; assay: Effect on the average tumor number was determined in DMBA treated rats on day 8 (4 rats with tumors out of 10 rats)
Rattus norvegicus [23] = organism: Rattus norvegicus; assay: Effect on the average tumor mass was determined in DMBA treated rats on day 30 (3 rats with tumors out of 10 rats)
Rattus norvegicus [24] = organism: Rattus norvegicus; assay: Effect on the average tumor mass was determined in DMBA treated rats on day 8 (4 rats with tumors out of 10 rats)
Rattus norvegicus [25] = organism: Rattus norvegicus; assay: Effect on the average tumor mass was determined in DMBA treated rats on day 150 (9 rats with tumors out of 10 rats)
Rattus norvegicus [26] = organism: Rattus norvegicus; assay: Effect on the average tumor number was determined in DMBA treated rats on day 150 (9 rats with tumors out of 10 rats)
Rattus norvegicus [27] = organism: Rattus norvegicus; assay: Effect on the average tumor number was determined in DMBA treated rats on day 30 (9 rats with tumors out of 10 rats)
Rattus norvegicus [28] = organism: Rattus norvegicus; assay: Effect on the tumor incidence was determined in DMBA treated rats on day 30 (9 rats with tumors out of 10 rats)
Rattus norvegicus [29] = organism: Rattus norvegicus; assay: Effect on the tumor incidence was determined in DMBA treated rats on day 150 (9 rats with tumors out of 10 rats)
Rattus norvegicus [30] = organism: Rattus norvegicus; assay: Effect on the average tumor mass was determined in DMBA treated rats on day 30 (9 rats with tumors out of 10 rats)
Rattus norvegicus [31] = organism: Rattus norvegicus; assay: Effect on the average tumor number was determined in DMBA treated rats on day 6 (4 rats with tumors out of 10 rats)
Rattus norvegicus [32] = organism: Rattus norvegicus; assay: Effect on the tumor incidence was determined in DMBA treated rats on day 150 (10 rats with tumors out of 10 rats)
Rattus norvegicus [33] = organism: Rattus norvegicus; assay: Effect on the tumor incidence was determined in DMBA treated rats on day 6 (4 rats with tumors out of 10 rats)
Rattus norvegicus [34] = organism: Rattus norvegicus; assay: Effect on the average tumor mass was determined in DMBA treated rats on day 6 (4 rats with tumors out of 10 rats)
Rattus norvegicus [35] = organism: Rattus norvegicus; assay: Effect on the tumor incidence was determined in DMBA treated rats on day 30 (10 rats with tumors out of 10 rats)
Rattus norvegicus [36] = organism: Rattus norvegicus; assay: Effect on the average tumor mass was determined in DMBA treated rats on day 30 (10 rats with tumors out of 10 rats)
Rattus norvegicus [37] = organism: Rattus norvegicus; assay: Effect on the average tumor mass was determined in DMBA treated rats on day 150 (10 rats with tumors out of 10 rats)
Rattus norvegicus [38] = organism: Rattus norvegicus; assay: Effect on the average tumor number was determined in DMBA treated rats on day 30 (10 rats with tumors out of 10 rats)
Rattus norvegicus [39] = organism: Rattus norvegicus; assay: Effect on the average tumor number was determined in DMBA treated rats on day 150 (10 rats with tumors out of 10 rats)

Question: For `CC(C)[C@@H]1C(=O)N2CCC[C@H]2[C@]2(O)O[C@](NC(=O)[C@@H]3C=C4c5cccc6[nH]cc(c56)C[C@H]4N(C)C3)(C(C)C)C(=O)N12.C[C@]12CC[C@@H]3c4ccc(O)c(F)c4CC[C@H]3[C@@H]1CC[C@@H]2O.O=C(O)/C=C\C(=O)O`, which Tumor number (Rattus norvegicus [1]) is on record?
Answer: Its Tumor number is 1.

Question: What about the Tumor mass (Rattus norvegicus [2]) of the same compound?
Answer: The Tumor mass was 0.4 g.

Question: And the Tumor mass (Rattus norvegicus [3])?
Answer: The Tumor mass was 0.2 g.

Question: What about the Tumor number (Rattus norvegicus [4]) of the same compound?
Answer: Its Tumor number is 1.

Question: And the Total tumors (Rattus norvegicus [5])?
Answer: The Total tumors was 5.

Question: What about the Tumor mass (Rattus norvegicus [6]) of the same compound?
Answer: Its Tumor mass is 0.2 g.

Question: What about the Total tumors (Rattus norvegicus [7]) of the same compound?
Answer: Its Total tumors is 1.

Question: What about the Tumor number (Rattus norvegicus [8]) of the same compound?
Answer: Its Tumor number is 1.

Question: And the Total tumors (Rattus norvegicus [9])?
Answer: The Total tumors was 3.

Question: What about the Tumor number (Rattus norvegicus [10]) of the same compound?
Answer: The Tumor number was 1.2.

Question: What about the Tumor number (Rattus norvegicus [11]) of the same compound?
Answer: Its Tumor number is 1.

Question: And the Total tumors (Rattus norvegicus [12])?
Answer: The Total tumors was 6.

Question: And the Tumor mass (Rattus norvegicus [13])?
Answer: The Tumor mass was 2.7 g.

Question: And the Total tumors (Rattus norvegicus [14])?
Answer: The Total tumors was 3.

Question: And the Tumor mass (Rattus norvegicus [15])?
Answer: The Tumor mass was 0.3 g.

Question: `CC(=O)[C@H]1CC[C@H]2[C@@H]3CCC4=CC(=O)CC[C@]4(C)[C@H]3CC[C@]12C.CC(C)[C@@H]1C(=O)N2CCC[C@H]2[C@]2(O)O[C@](NC(=O)[C@@H]3C=C4c5cccc6[nH]cc(c56)C[C@H]4N(C)C3)(C(C)C)C(=O)N12.C[C@]12CC[C@@H]3c4ccc(O)c(F)c4CC[C@H]3[C@@H]1CC[C@@H]2O.O=C(O)/C=C\C(=O)O` was tested. Which Total tumors (Rattus norvegicus [16]) did it give?
Answer: Its Total tumors is 3.

Question: And the Tumor mass (Rattus norvegicus [2])?
Answer: Its Tumor mass is 0.5 g and 0.4 g.

Question: And the Total tumors (Rattus norvegicus [17])?
Answer: The Total tumors was 5 and 6.

Question: And the Tumor number (Rattus norvegicus [4])?
Answer: Its Tumor number is 1.4.

Question: What about the Total tumors (Rattus norvegicus [5]) of the same compound?
Answer: The Total tumors was 7.

Question: And the Tumor mass (Rattus norvegicus [6])?
Answer: The Tumor mass was 0.8 g and 0.6 g.

Question: What about the Total tumors (Rattus norvegicus [7]) of the same compound?
Answer: Its Total tumors is 1.

Question: And the Tumor number (Rattus norvegicus [8])?
Answer: Its Tumor number is 1.

Question: And the Tumor number (Rattus norvegicus [18])?
Answer: The Tumor number was 2.5.

Question: What about the Tumor number (Rattus norvegicus [10]) of the same compound?
Answer: The Tumor number was 1 and 1.2.

Question: What about the Total tumors (Rattus norvegicus [19]) of the same compound?
Answer: Its Total tumors is 5.

Question: And the Tumor number (Rattus norvegicus [11])?
Answer: Its Tumor number is 1.

Question: What about the Tumor mass (Rattus norvegicus [20]) of the same compound?
Answer: The Tumor mass was 5 g.

Question: What about the Total tumors (Rattus norvegicus [12]) of the same compound?
Answer: Its Total tumors is 5 and 6.

Question: What about the Tumor number (Rattus norvegicus [21]) of the same compound?
Answer: Its Tumor number is 1.

Question: And the Tumor mass (Rattus norvegicus [13])?
Answer: Its Tumor mass is 1.2 g.

Question: What about the Tumor number (Rattus norvegicus [22]) of the same compound?
Answer: The Tumor number was 1.3 and 1.4.

Question: And the Total tumors (Rattus norvegicus [14])?
Answer: The Total tumors was 3.

Question: And the Tumor mass (Rattus norvegicus [23])?
Answer: The Tumor mass was 0.3 g.

Question: And the Tumor mass (Rattus norvegicus [15])?
Answer: Its Tumor mass is 0.5 g.

Question: What about the Tumor mass (Rattus norvegicus [24]) of the same compound?
Answer: The Tumor mass was 0.5 g and 0.6 g.

Question: For `CC(C)[C@@H]1C(=O)N2CCC[C@H]2[C@]2(O)O[C@](NC(=O)[C@@H]3C=C4c5cccc6[nH]cc(c56)C[C@H]4N(C)C3)(C(C)C)C(=O)N12.O=C(O)/C=C\C(=O)O`, which Tumor mass (Rattus norvegicus [25]) is on record?
Answer: Its Tumor mass is 1.7 g.

Question: What about the Tumor mass (Rattus norvegicus [2]) of the same compound?
Answer: The Tumor mass was 0.8 g.

Question: And the Total tumors (Rattus norvegicus [17])?
Answer: Its Total tumors is 5.

Question: And the Tumor number (Rattus norvegicus [4])?
Answer: Its Tumor number is 1.2.

Question: What about the Total tumors (Rattus norvegicus [5]) of the same compound?
Answer: The Total tumors was 6.

Question: And the Tumor mass (Rattus norvegicus [6])?
Answer: The Tumor mass was 0.4 g.

Question: What about the Tumor number (Rattus norvegicus [10]) of the same compound?
Answer: Its Tumor number is 1.6.

Question: What about the Tumor number (Rattus norvegicus [26]) of the same compound?
Answer: The Tumor number was 1.9.

Question: What about the Tumor number (Rattus norvegicus [27]) of the same compound?
Answer: The Tumor number was 1.3.

Question: And the Total tumors (Rattus norvegicus [12])?
Answer: The Total tumors was 8.

Question: What about the Total tumors (Rattus norvegicus [28]) of the same compound?
Answer: Its Total tumors is 12.

Question: What about the Total tumors (Rattus norvegicus [29]) of the same compound?
Answer: Its Total tumors is 16.

Question: What about the Tumor number (Rattus norvegicus [22]) of the same compound?
Answer: The Tumor number was 1.3.

Question: What about the Tumor mass (Rattus norvegicus [30]) of the same compound?
Answer: Its Tumor mass is 0.4 g.

Question: What about the Tumor mass (Rattus norvegicus [24]) of the same compound?
Answer: Its Tumor mass is 0.4 g.

Question: What does the source list for `CC(=O)[C@H]1CC[C@H]2[C@@H]3CCC4=CC(=O)CC[C@]4(C)[C@H]3CC[C@]12C.CC(C)[C@@H]1C(=O)N2CCC[C@H]2[C@]2(O)O[C@](NC(=O)[C@@H]3C=C4c5cccc6[nH]cc(c56)C[C@H]4N(C)C3)(C(C)C)C(=O)N12.O=C(O)/C=C\C(=O)O`?
Answer: Tumor number (Rattus norvegicus [31]): 1; Tumor number (Rattus norvegicus [1]): 1.3; Total tumors (Rattus norvegicus [32]): 17; Total tumors (Rattus norvegicus [33]): 4; Tumor mass (Rattus norvegicus [2]): 0.4 g; Tumor mass (Rattus norvegicus [3]): 0.9 g; Tumor mass (Rattus norvegicus [34]): 0.7 g; Total tumors (Rattus norvegicus [9]): 4; Tumor number (Rattus norvegicus [10]): 1.2; Total tumors (Rattus norvegicus [35]): 15; Tumor mass (Rattus norvegicus [36]): 1.5 g; Total tumors (Rattus norvegicus [12]): 6; Tumor mass (Rattus norvegicus [37]): 4 g; Tumor number (Rattus norvegicus [38]): 1.5; Tumor number (Rattus norvegicus [39]): 1.7
